Measurements taken from US20100298141A1, “SUBSTITUTED PYRIDINE N-OXIDE HERBICIDES” (E. I. DU PONT DE NEMOURS AND COMPANY, priority 2007, published 2010).

Legend:
yellow nutsedge = assay: Test C pre-/postemergence test; assay type: in vivo, Cyperus esculentus
Method in brief: (§1)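 Seeds were planted and treated preemergence with test chemical in a non-phytotoxic solvent mixture containing surfactant. Postemergence applications of the same formulation went onto plants 2 to 18 cm tall (1- to 4-leaf stage). A dash marks no test result.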

wheat = assay: Test C pre-/postemergence test; assay type: in vivo, Triticum aestivum
Method in brief: as §1

kochia = assay: Test C pre-/postemergence test; assay type: in vivo, Kochia scoparia
Method in brief: as §1

Italian ryegrass = assay: Test C pre-/postemergence test; assay type: in vivo, Lolium multiflorum
Method in brief: as §1

umbrella sedge = assay: Test C flooded paddy test; assay type: in vivo, Cyperus difformis; conditions: Flood
Method in brief: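 In-water treatment: compound dosed into 3 cm flood over soil, water level unchanged throughout. Controls run alongside; visual assessment at day 13–15.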

pigweed = assay: Test C pre-/postemergence test; assay type: in vivo, Amaranthus retroflexus
Method in brief: as §1

morningglory [1] = assay: Test A pre-/postemergence greenhouse test; assay type: in vivo, Ipomoea spp.; conditions: for Plant response rating, Morningglory: 0 to 100 scale where 0 is no effect and 100 is complete control; for Morningglory plant response rating: 0 to 100 scale
Method in brief: (§2)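 Visual injury ratings, made relative to untreated controls roughly ten days after treatment, cover both preemergence and postemergence application. Compounds in a surfactant-containing non-phytotoxic solvent were sprayed onto the soil surface after sowing and, simultaneously, onto young plants at the one- to two-leaf stage.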

woolly cupgrass = assay: Test C pre-/postemergence test; assay type: in vivo, Eriochloa villosa
Method in brief: as §1

green foxtail = assay: Test C pre-/postemergence test; assay type: in vivo, Setaria viridis
Method in brief: as §1

soybean = assay: Test C pre-/postemergence test; assay type: in vivo, Glycine max
Method in brief: as §1

morningglory [2] = assay: Test C pre-/postemergence test; assay type: in vivo, Ipomoea coccinea
Method in brief: as §1

[3] = test system: common (oilseed) sunflower; assay: Test C pre-/postemergence test; assay type: in vivo, Helianthus annuus
Method in brief: as §1

crabgrass = assay: Test C pre-/postemergence test; assay type: in vivo, Digitaria sanguinalis
Method in brief: as §1

blackgrass = assay: Test C pre-/postemergence test; assay type: in vivo, Alopecurus myosuroides
Method in brief: as §1

corn = assay: Test C pre-/postemergence test; assay type: in vivo, Zea mays
Method in brief: as §1

barnyardgrass = assay: Test A pre-/postemergence greenhouse test; assay type: in vivo, Echinochloa crus-galli; conditions: for Plant response rating, Barnyardgrass: 0 to 100 scale where 0 is no effect and 100 is complete control; for Barnyardgrass plant response rating: 0 to 100 scale
Method in brief: as §2

[4] = 62 g ai/ha, Preemergence, scale 0 to 100
[5] = 125 g ai/ha, preemergence, scale 0 (no effect) to 100 (complete control)
[6] = Preemergence, 31 g ai/ha, scale 0 to 100 (0 no effect, 100 complete control)
[7] = preemergence, 250 g ai/ha, scale 0 (no effect) to 100 (complete control)
[8] = Postemergence, 500 g ai/ha, 0 is no effect, 100 is complete control
[9] = Preemergence, 125 g ai/ha, 0 no effect, 100 complete control

CCn1nc(C(F)(F)F)c(CS(=O)(=O)c2cccc[n+]2[O-])c1OCC(F)(F)F [Compound 63]
5: Soybean plant response rating (soybean; [4]) | Plant response rating, Corn (corn; [6])
60: Wheat plant response rating (wheat; [5]) | Ryegrass, Italian plant response rating (Italian ryegrass; [5]) | Morningglory plant response rating (morningglory [1]; [8]) | Sunflower plant response rating [3, 4]
10: Plant response rating, Sunflower [3, 6]
98: Nutsedge, Yellow plant response rating (yellow nutsedge; [7])
55: Nutsedge, Yellow plant response rating (yellow nutsedge; [5])
100: Kochia plant response rating (kochia; [4]) | Kochia plant response rating (kochia; [5]) | Plant response rating, Kochia (kochia; [6]) | Kochia plant response rating (kochia; [7]) | Ryegrass, Italian plant response rating (Italian ryegrass; [7]) | Pigweed plant response rating (pigweed; [4]) | Pigweed plant response rating (pigweed; [5]) | Pigweed plant response rating (pigweed; [7]) | Foxtail, Green plant response rating (green foxtail; [4]) | Foxtail, Green plant response rating (green foxtail; [5]) | Foxtail, Green plant response rating (green foxtail; [7]) | Crabgrass, Large plant response rating (crabgrass; [4]) | Crabgrass, Large plant response rating (crabgrass; [5]) | Plant response rating, Crabgrass, Large (crabgrass; [6]) | Crabgrass, Large plant response rating (crabgrass; [7]) | Blackgrass plant response rating (blackgrass; [4]) | Blackgrass plant response rating (blackgrass; [5]) | Blackgrass plant response rating (blackgrass; [7]) | Corn plant response rating (corn; [7]) | Plant response rating, Barnyardgrass (barnyardgrass; Preemergence, 500 g ai/ha)
85: Wheat plant response rating (wheat; [7]) | Plant response rating, Sedge, Umbrella (umbrella sedge; 250 g ai/ha, scale 0 to 100, 0 no effect, 100 complete control, 13 to 15 days) | Cupgrass, Woolly plant response rating (woolly cupgrass; [4]) | Cupgrass, Woolly plant response rating (woolly cupgrass; [5]) | Sunflower plant response rating [3, 7] | Corn plant response rating (corn; [4])
30: Plant response rating, Morningglory (morningglory [1]; Postemergence, 125 g ai/ha)
70: Plant response rating, Morningglory (morningglory [1]; Preemergence, 500 g ai/ha) | Plant response rating, Blackgrass (blackgrass; [6])
50: Nutsedge, Yellow plant response rating (yellow nutsedge; [4]) | Ryegrass, Italian plant response rating (Italian ryegrass; [4]) | Plant response rating, Pigweed (pigweed; [6]) | Soybean plant response rating (soybean; [7])
80: Sunflower plant response rating [3, 5]
90: Corn plant response rating (corn; [5]) | Plant response rating, Barnyardgrass (barnyardgrass; Postemergence, 125 g ai/ha) | Barnyardgrass plant response rating (barnyardgrass; [8]) | Barnyardgrass plant response rating (barnyardgrass; [9])
0: Plant response rating, Nutsedge, Yellow (yellow nutsedge; [6]) | Plant response rating, Wheat (wheat; [6]) | Plant response rating, Ryegrass, Italian (Italian ryegrass; [6]) | Plant response rating, Sedge, Umbrella (umbrella sedge; 62 g ai/ha, scale 0 to 100 (0 no effect, 100 complete control)) | Plant response rating, Cupgrass, Woolly (woolly cupgrass; [6]) | Plant response rating, Soybean (soybean; [6]) | Morningglory plant response rating (morningglory [2]; [4]) | Morningglory plant response rating (morningglory [2]; [5]) | Plant response rating, Morningglory (morningglory [2]; [6]) | Morningglory plant response rating (morningglory [2]; [7])
95: Plant response rating, Foxtail, Green (green foxtail; [6])
20: Wheat plant response rating (wheat; [4]) | Morningglory plant response rating (morningglory [1]; [9])
